Source: US4695545A, “Culture and process for producing A41030 antibiotics” (Eli Lilly and Company, priority 1984, dated 1987)

What was measured:
[1] = Electrometric titration (pKa); assay type: physicochemical; settings: electrometric titration in 66% dimethylformamide in water
Excerpt: Antibiotic A41030 factor A is a white, crystalline solid.

[2] = system: Peptostreptococcus intermedius; test: MIC anaerobic bacteria, agar-dilution; assay type: cell-based; settings: Peptostreptococcus intermedius 1264
[3] = system: Clostridium septicum; test: MIC anaerobic bacteria, agar-dilution; assay type: cell-based; settings: Clostridium septicum 1128
[4] = system: Clostridium difficile; test: MIC anaerobic bacteria, agar-dilution; assay type: cell-based; settings: Clostridium difficile 2994; agar-dilution (Table 9)
[5] = system: Klebsiella pneumoniae; test: MIC aerobic bacteria, standard agar-dilution assay; assay type: cell-based; settings: Klebsiella pueumoniae X68, 24 hours
[6] = Solubility in solvents; assay type: physicochemical; settings: qualitative
Excerpt: As many as seven antibiotic factors are recovered from the fermentation and are obtained as a mixture, the A41030 complex. It will be recognized that the ratio of the factors in the A41030 complex will vary, depending upon the fermentation conditions used. The individual factors A, B, C, D, E, F, and G are separated and isolated as individual compounds, as hereinafter described.

[7] = system: Enterobacter cloacae; test: MIC aerobic bacteria, standard agar-dilution assay; assay type: cell-based
[8] = system: Clostridium perfringens; assay type: cell-based; settings: Clostridium perfringens 81; agar-dilution
[9] = system: Propionibacterium acnes; test: MIC against Propionibacterium acnes strains, 24-hour agar-dilution; assay type: cell-based
Excerpt: Antibiotic A41030 factors A, B and C have been tested and found to be active against a genus of anaerobic bacteria identified as Propionibacterium acnes.

[10] = system: Streptococcus pneumoniae; test: MIC aerobic bacteria, standard agar-dilution assay; assay type: cell-based; settings: Streptococcus pneumoniae Park I, 24 hours
[11] = system: Escherichia coli; test: MIC aerobic bacteria, standard agar-dilution assay; assay type: cell-based
[12] = system: Bacteroides melaninogenicus; test: MIC anaerobic bacteria, agar-dilution; assay type: cell-based; settings: Bacteroides melaninogenicus 2736
[13] = system: S. pyogenes; test: In vivo oral activity against S. pyogenes in mice
[14] = system: Streptococcus sp. Group D; test: MIC aerobic bacteria, standard agar-dilution assay; assay type: cell-based
[15] = system: Bacteroides thetaiotaomicron; test: MIC anaerobic bacteria, agar-dilution; assay type: cell-based; settings: Bacteroides thetaiotaomicron 1438
[16] = system: Citrobacter freundii; test: MIC aerobic bacteria, standard agar-dilution assay; assay type: cell-based; settings: Citrobacter freundii CF17, 24 hours
[17] = system: Serratia marcescens; test: MIC aerobic bacteria, standard agar-dilution assay; assay type: cell-based; settings: Serratia marcescens X99, 24 hours
[18] = system: Streptococcus pyogenes; test: MIC aerobic bacteria, standard agar-dilution assay; assay type: cell-based; settings: Streptococcus pyogenes C203, 24 hours
[19] = system: Staphylococcus epidermidis; test: MIC aerobic bacteria, standard agar-dilution assay; assay type: cell-based
[20] = system: Enterobacter aerogenes; test: MIC aerobic bacteria, standard agar-dilution assay; assay type: cell-based; settings: Enterobacter aerogenes C32, 24 hours
[21] = system: Peptococcus prevoti; test: MIC anaerobic bacteria, agar-dilution; assay type: cell-based; settings: Peptococcus prevoti 1281
[22] = system: Bacteroides vulgatis; test: MIC anaerobic bacteria, agar-dilution; assay type: cell-based; settings: Bacteroides vulgatis 1211
[23] = system: Clostridium difficile; test: MIC against Clostridium difficile strains, agar-dilution; assay type: cell-based
Excerpt: The A41030 antibiotic factors A, B, C, D, E, F, and G, are also active against a number of strains of Clostridium difficile, as determined by the agardilution method.

[24] = system: Bacteroides corrodens; test: MIC anaerobic bacteria, agar-dilution; assay type: cell-based; settings: Bacteroides corrodens 1874
[25] = system: Haemophilus influenzae; test: MIC aerobic bacteria, standard agar-dilution assay; assay type: cell-based
[26] = system: Bacteroides fragilis; test: MIC anaerobic bacteria, agar-dilution; assay type: cell-based
[27] = system: Fusobacterium necrophorum; test: MIC anaerobic bacteria, agar-dilution; assay type: cell-based; settings: Fusobacterium necrophorum 6054A
[28] = system: Fusobacterium symbiosum; test: MIC anaerobic bacteria, agar-dilution; assay type: cell-based; settings: Fusobacterium symbiosum 1470
[29] = system: Salmonella typhi; test: MIC aerobic bacteria, standard agar-dilution assay; assay type: cell-based
[30] = system: Propionibacterium acnes; test: MIC anaerobic bacteria, agar-dilution; assay type: cell-based; settings: Propionibacterium acnes 79; agar-dilution (Table 9)
[31] = system: Peptostreptococcus anaerobius; test: MIC anaerobic bacteria, agar-dilution; assay type: cell-based; settings: Peptostreptococcus anaerobius 1428

A41030 factor B
pKa, first titratable group [1]: about 5.6
pKa, second titratable group [1]: ~7.5
possibly additional pKa's ([1]; stated as possible): > 10
MIC [2]: 0.5 µg/mL
MIC [3]: 4 µg/mL
MIC [4]: 32 µg/mL
MIC [5]: 128 µg/mL
solubility (solvents) [6]: soluble in the same solvents as factor A
MIC ([7]; Enterobacter cloacae 265A, 24 hours): 128 µg/mL
MIC ([7]; Enterobacter cloacae EB5, 24 hours): 128 µg/mL
MIC [8]: 0.5 µg/mL
MIC ([9]; P. acnes strain 44): 0.06 µg/mL
MIC ([9]; P. acnes strain 79): 0.06 µg/mL
MIC ([9]; P. acnes strain 101): 0.06 µg/mL
MIC ([9]; P. acnes strain 103): 0.06 µg/mL
MIC ([9]; P. acnes strain 104): 0.25 µg/mL
MIC ([9]; P. acnes strain 105): 0.06 µg/mL
MIC ([9]; P. acnes strain 106): 0.06 µg/mL
MIC ([9]; P. acnes strain 107): 0.06 µg/mL
MIC ([9]; P. acnes strain 5170): ≤ 0.03 µg/mL
MIC ([9]; P. acnes strain 5176): 0.06 µg/mL
MIC ([9]; P. acnes strain 5187): 0.06 µg/mL
MIC ([9]; P. acnes strain 5191): 0.06 µg/mL
MIC ([9]; P. acnes strain 5197): 0.06 µg/mL
MIC ([9]; P. acnes strain 5226): 0.5 µg/mL
MIC ([9]; P. acnes strain 5227): 0.06 µg/mL
MIC ([9]; P. acnes strain 5228): 0.5 µg/mL
MIC ([9]; P. acnes strain 5229): 0.25 µg/mL
MIC ([9]; P. acnes strain 5246): 0.125 µg/mL
MIC ([9]; P. acnes strain 5292): 0.06 µg/mL
MIC [10]: 0.5 µg/mL
MIC ([11]; Escherichia coli EC14, 24 hours): 128 µg/mL
MIC ([11]; Escherichia coli N10, 24 hours): 128 µg/mL
MIC ([11]; Escherichia coli TEM, 24 hours): 128 µg/mL
MIC [12]: 4 µg/mL
in vivo oral activity [13]: > 300 mg./kg.×2
MIC ([14]; Streptococcus sp. Group D 9960, 24 hours): 1 µg/mL
MIC ([14]; Streptococcus sp. Group D X66, 24 hours): 1 µg/mL
MIC [15]: 32 µg/mL
MIC [16]: 128 µg/mL
MIC [17]: 128 µg/mL
MIC [18]: 0.25 µg/mL
MIC ([19]; Staphylococcus epidermidis EPI1, 24 hours): 0.125 µg/mL
MIC ([19]; Staphylococcus epidermidis EPI2, 24 hours): 0.5 µg/mL
MIC [20]: 64 µg/mL
MIC [21]: ≤ 0.25 µg/mL
MIC [22]: 32 µg/mL
MIC ([23]; Clostridium difficile 78): 0.5 µg/mL
MIC ([23]; Clostridium difficile 107B): 0.5 µg/mL
MIC ([23]; Clostridium difficile 111F): 1.0 µg/mL
MIC ([23]; Clostridium difficile 1153): 1.0 µg/mL
MIC ([23]; Clostridium difficile 2634): 1.0 µg/mL
MIC ([23]; Clostridium difficile 3424-5B): 1.0 µg/mL
MIC ([23]; Clostridium difficile 3816): 1.0 µg/mL
MIC ([23]; Clostridium difficile 3950D): 1.0 µg/mL
MIC ([23]; Clostridium difficile 6890): 1.0 µg/mL
MIC ([23]; Clostridium difficile 8484): 1.0 µg/mL
MIC ([23]; Clostridium difficile A-194): 1.0 µg/mL
MIC ([23]; Clostridium difficile A-195): 1.0 µg/mL
MIC ([23]; Clostridium difficile A-196): 1.0 µg/mL
MIC ([23]; Clostridium difficile A-279): 1.0 µg/mL
MIC ([23]; Clostridium difficile A-280): 0.5 µg/mL
MIC ([23]; Clostridium difficile A-281): 1.0 µg/mL
MIC ([23]; Clostridium difficile WAL-2112): 1.0 µg/mL
MIC ([23]; Clostridium difficile WAL-3657): 1.0 µg/mL
MIC ([23]; Clostridium difficile WAL-4268): 0.5 µg/mL
MIC [24]: 64 µg/mL
MIC ([25]; Haemophilus influenzae 251, 24 hours): 2 µg/mL
MIC ([25]; Haemophilus influenzae Brun, 24 hours): 8 µg/mL
MIC ([26]; Bacteroides fragilis 111): 64 µg/mL
MIC ([26]; Bacteroides fragilis 1877): 32 µg/mL
MIC ([26]; Bacteroides fragilis 1936B): 32 µg/mL
MIC [27]: 8 µg/mL
MIC [28]: 1.0 µg/mL
MIC ([29]; Salmonella typhi 1335, 24 hours): > 128 µg/mL
MIC ([29]; Salmonella typhi X514, 24 hours): > 128 µg/mL
MIC [30]: 16 µg/mL
MIC [31]: ≤ 0.25 µg/mL
